In ChEMBL document CHEMBL5518160, “Progress in the development of TRPV1 small-molecule antagonists: Novel Strategies for pain management” (Eur J Med Chem, 2023):

Assays:
[1] = biological target: T1, Transient receptor potential cation channel subfamily V member 1 (Homo sapiens, UniProt Q8NER1); assay: Antagonist activity at human TRPV1 expressed in HEK293 cells assessed as inhibition of capsaicin-induced Ca2+ influx by fluorescence based assay; format: cell-based
Mus musculus = species: Mus musculus; assay: Antipruritic effect in mouse assessed as reduction in histamine-induced itching duration relative to control; format: functional; design: scale not given: the % may be the effect or the level left
[2] = biological target: T1, Transient receptor potential cation channel subfamily V member 1; assay: Antagonist activity at human TRPV1
[3] = biological target: T1, Transient receptor potential cation channel subfamily V member 1; assay: Binding affinity to human TRPV1 assessed as inhibition constant
[4] = biological target: T1, Transient receptor potential cation channel subfamily V member 1; assay: Antagonist activity at human TRPV1 assessed as inhibition of capsaicin-induced increase in intracellular Ca2+ level; format: cell-based
[5] = biological target: T2, Prostaglandin G/H synthase 2 (Homo sapiens, UniProt P35354); assay: Inhibition of COX-2 (unknown origin)
T2 sequence (P35354 whole entry): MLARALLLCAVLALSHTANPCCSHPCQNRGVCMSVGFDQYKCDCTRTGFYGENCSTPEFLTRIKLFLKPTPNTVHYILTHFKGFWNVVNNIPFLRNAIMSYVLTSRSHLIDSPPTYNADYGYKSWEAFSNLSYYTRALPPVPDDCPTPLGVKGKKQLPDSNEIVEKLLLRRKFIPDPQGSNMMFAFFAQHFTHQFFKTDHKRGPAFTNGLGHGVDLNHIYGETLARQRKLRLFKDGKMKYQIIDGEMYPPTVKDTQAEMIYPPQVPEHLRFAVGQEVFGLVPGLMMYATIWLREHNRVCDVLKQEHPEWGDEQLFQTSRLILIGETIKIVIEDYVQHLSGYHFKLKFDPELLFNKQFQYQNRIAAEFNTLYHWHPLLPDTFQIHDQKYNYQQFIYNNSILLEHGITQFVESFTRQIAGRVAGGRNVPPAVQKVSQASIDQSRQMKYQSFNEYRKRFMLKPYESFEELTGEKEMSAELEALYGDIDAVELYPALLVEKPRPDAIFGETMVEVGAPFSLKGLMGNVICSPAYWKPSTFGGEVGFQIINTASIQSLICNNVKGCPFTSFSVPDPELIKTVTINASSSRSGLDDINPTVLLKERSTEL

[6] = biological target: T3, Transient receptor potential cation channel subfamily V member 1 (Rattus norvegicus, UniProt O35433); assay: Inhibition of rat TRPV1 assessed as inhibition of capsaicin-induced increase in intracellular Ca2+ level; format: cell-based
T3 sequence (O35433 whole entry): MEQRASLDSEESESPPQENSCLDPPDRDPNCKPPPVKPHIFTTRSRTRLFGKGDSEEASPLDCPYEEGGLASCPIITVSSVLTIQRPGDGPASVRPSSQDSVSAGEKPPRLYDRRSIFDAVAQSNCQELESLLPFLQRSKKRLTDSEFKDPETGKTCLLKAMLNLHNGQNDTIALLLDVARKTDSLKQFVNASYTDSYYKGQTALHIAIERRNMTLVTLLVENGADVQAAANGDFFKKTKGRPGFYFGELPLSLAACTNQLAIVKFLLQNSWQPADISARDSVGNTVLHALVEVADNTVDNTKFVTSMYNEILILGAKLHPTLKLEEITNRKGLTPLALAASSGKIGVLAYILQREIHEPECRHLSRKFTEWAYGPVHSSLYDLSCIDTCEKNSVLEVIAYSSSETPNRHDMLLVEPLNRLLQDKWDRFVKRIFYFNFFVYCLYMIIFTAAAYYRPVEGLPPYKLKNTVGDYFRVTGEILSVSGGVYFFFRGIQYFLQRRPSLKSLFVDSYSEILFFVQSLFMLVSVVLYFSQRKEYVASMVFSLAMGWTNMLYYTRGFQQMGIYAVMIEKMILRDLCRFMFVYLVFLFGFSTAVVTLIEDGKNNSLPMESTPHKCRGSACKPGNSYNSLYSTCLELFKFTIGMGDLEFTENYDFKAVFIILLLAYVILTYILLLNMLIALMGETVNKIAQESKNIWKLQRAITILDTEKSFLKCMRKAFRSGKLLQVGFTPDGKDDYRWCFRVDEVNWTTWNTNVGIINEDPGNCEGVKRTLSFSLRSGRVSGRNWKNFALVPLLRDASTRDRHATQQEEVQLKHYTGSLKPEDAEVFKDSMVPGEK

[7] = biological target: T1, Transient receptor potential cation channel subfamily V member 1; assay: Antagonist activity at human TRPV1 assessed as inhibition of pH-induced increase in intracellular Ca2+ level; format: cell-based
[8] = biological target: T1, Transient receptor potential cation channel subfamily V member 1; assay: Antagonist activity at human TRPV1 expressed in HEK293 cells assessed as inhibition of NADA-induced increase in intracellular Ca2+ level incubated for 2 mins by scintillation counter analysis; format: cell-based
[9] = biological target: T1, Transient receptor potential cation channel subfamily V member 1; assay: Antagonist activity at human TRPV1 expressed in HEK293 cells assessed as inhibition of capsaicin-induced increase in intracellular Ca2+ level incubated for 2 mins by scintillation counter analysis; format: cell-based
[10] = biological target: T3, Transient receptor potential cation channel subfamily V member 1; assay: Antagonist activity at rat TRPV1 expressed in CHO cells assessed as inhibition of pH-induced increase in intracellular Ca2+ level by fluorescence based analysis; format: cell-based
[11] = Antagonist activity at Xenopus oocytes TRPV1 assessed as inhibition of capsaicin-induced increase in intracellular Ca2+ level; format: cell-based; conditions: Xenopus laevis
[12] = biological target: T1, Transient receptor potential cation channel subfamily V member 1; assay: Antagonist activity at capsaicin-induced human TRPV1 activation
[13] = biological target: T1, Transient receptor potential cation channel subfamily V member 1; assay: Antagonist activity at human TRPV1 assessed as inhibition of AITC-induced increase in intracellular Ca2+ level; format: cell-based
[14] = biological target: T1, Transient receptor potential cation channel subfamily V member 1; assay: Antagonist activity at human TRPV1 expressed in HEK293 cells assessed as inhibition of capsaicin-induced increase in intracellular Ca2+ level by FLIPR-based Ca2+ assay; format: cell-based
[15] = biological target: T3, Transient receptor potential cation channel subfamily V member 1; assay: Antagonist activity at rat TRPV1 assessed as inhibition of pH-induced increase in intracellular Ca2+ level; format: cell-based

T1 sequence (Q8NER1 whole entry): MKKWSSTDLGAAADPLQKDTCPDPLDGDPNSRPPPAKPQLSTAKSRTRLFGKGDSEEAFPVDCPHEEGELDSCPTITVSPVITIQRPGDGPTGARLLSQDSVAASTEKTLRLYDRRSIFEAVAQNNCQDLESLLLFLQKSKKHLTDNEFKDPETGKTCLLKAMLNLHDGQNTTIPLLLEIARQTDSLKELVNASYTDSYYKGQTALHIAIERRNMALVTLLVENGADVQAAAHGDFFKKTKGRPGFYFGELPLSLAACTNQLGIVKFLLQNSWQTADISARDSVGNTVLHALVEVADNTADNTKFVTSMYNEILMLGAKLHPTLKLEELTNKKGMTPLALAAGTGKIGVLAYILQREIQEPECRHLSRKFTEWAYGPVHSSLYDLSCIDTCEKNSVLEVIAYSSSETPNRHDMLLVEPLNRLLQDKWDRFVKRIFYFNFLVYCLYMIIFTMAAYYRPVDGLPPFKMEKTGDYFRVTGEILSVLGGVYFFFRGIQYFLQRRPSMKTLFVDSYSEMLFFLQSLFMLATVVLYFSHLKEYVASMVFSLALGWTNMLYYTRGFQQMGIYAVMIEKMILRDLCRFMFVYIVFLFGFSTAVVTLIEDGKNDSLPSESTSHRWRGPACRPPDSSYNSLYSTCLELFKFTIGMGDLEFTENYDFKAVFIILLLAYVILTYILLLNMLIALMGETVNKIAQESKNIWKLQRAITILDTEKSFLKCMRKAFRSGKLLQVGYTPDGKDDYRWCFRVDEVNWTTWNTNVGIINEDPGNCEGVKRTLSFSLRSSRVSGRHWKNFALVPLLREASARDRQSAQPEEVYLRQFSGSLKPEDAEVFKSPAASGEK

With C=Cc1cc([C@@H](C)NC(=O)/C(C)=C/c2ccc(C(C)(C)C)cc2)ccc1NS(C)(=O)=O the IC50 [1] was 22 nM.
CCCCCCCCCCCC(=O)OCC(=O)NCc1cc(OC)c(O)cc1I gave an Activity (Mus musculus) of less than 1%.
CN(C)C1(Cc2ccccc2)CCN(c2cc(C(F)(F)F)ccc2CNC(=O)Nc2cccc3ncccc23)CC1 showed an IC50 [2] of 10.8 nM and a Ki [3] of 32 nM.
CC1CCN(c2nc(C(F)(F)F)ccc2CNC(=O)Cc2c(F)cccc2Cl)CC1 gave an IC50 [4] of 2.6 nM.
Compound COc1cc(C(=O)NS(=O)(=O)c2ccc(-n3nc(C(F)(F)F)cc3-c3ccc(C)cc3)cc2)ccc1O has an IC50 [5] of 11 nM.
For COc1cc(/C=C/C(=O)NS(=O)(=O)c2ccc(-n3nc(C(F)(F)F)cc3-c3ccc(C)cc3)cc2)ccc1O, the IC50 [5] was 23 nM and the IC50 [6] was 140 nM.
For O=C(Nc1ccc(Br)cc1)[C@@H]1CCCN1C(=O)Nc1cccc2cnccc12, the IC50 [7] was 313 nM and the IC50 [4] was 84 nM.
Compound CCC1(CC)CC(NC(=O)Nc2cccc3c(C)nccc23)c2cc(F)ccc2O1 (stereo unspecified) has an IC50 [8] of 7 nM and an IC50 [9] of 19 nM.
O=C1/C(=N\Nc2ccccc2)C(C(F)(F)C(F)(F)F)=NN1c1ccccc1 showed an IC50 [10] of 140 nM.
C[C@H]1O[C@H](O[C@H]2[C@H](Oc3cc(O)c4c(c3)O[C@H](c3ccc(O)cc3)CC4=O)O[C@H](CO)[C@@H](O)[C@@H]2O)[C@H](O)[C@@H](O)[C@H]1O gave an IC50 [11] of 33300 nM.
Cc1cc(C)nc(NC(=O)N2CCN(Cc3ccccc3N3CCCC3)CC2)c1 gave an IC50 [12] of 9.8 nM.
Compound O=C(C(c1ccccc1)N1C(=O)CCC1=O)N1CCN(c2cccc(C(F)(F)F)c2)CC1 (stereo unspecified) has an IC50 [4] of 45000 nM.
In the case of COc1cc(CNC(=O)COC(=O)/C=C(\C)CC=C(C)C)c(I)cc1O, the IC50 [4] is reported as 90 nM.
In the case of O=C1C[C@@H](c2ccc(O[C@@H]3O[C@H](CO)[C@@H](O)[C@H](O)[C@H]3O)cc2)Oc2cc(O)ccc21 [LIQUIRITIN], the IC50 [4] is reported as 9800 nM and the IC50 [13] is reported as 16200 nM.
Compound O=C(Nc1ccccc1Br)N[C@@H]1CCN(c2ccc(C(F)(F)F)cn2)C1 [SB-705498] has an IC50 [14] of 3 nM and an IC50 [15] of 6 nM.
